{"source": "patent US20090155395A1", "about": "(SAGITTARIUS LIFE SCIENCE CORP., priority 2007, published 2009)", "key": {"[1]": {"tested_on": "Propionibacterium acnes (ATCC 6919)", "test": "Minimum inhibitory concentration (MIC), broth dilution method", "type": "cell-based", "method": "Minimum inhibitory concentration (MIC) was determined by the broth dilution method (Edwards, J. R. et. al., Antimicrob Agents Chemother. 1989; 33(2):215-22).\n10 ul aliquot (1% DMSO final concentration) of serial dilutions were added into 0.99 ml of Reinforced Clostridial Medium (Oxiod, England.) with 1-5×10^5 CFU/ml of Propionibacterium acnes (ATCC 6919). […] Vehicle-control and active reference agents were used as blank and positive controls, respectively."}, "[2]": {"test": "Free radical scavenger, SOD mimetic activity (xanthine-xanthine oxidase / NBT reduction)", "type": "biochemical", "settings": "inhibition of NBT reduction, pH 10.5, 25° C., 20 minutes", "method": "(§1) The method to measure SOD (SOD, EC.1.15.1.1) activity was based on the inhibition of nitroblue tetrazolium reduction with xanthine-xanthine oxidase used as a superoxide generator (Sun Y, et. al., Clin. Chem. 1988; 34: 497-500).\n(§2) Conversion of xanthine to uric acid +O^−+NBT to formazan was then determined by measurement of absorbance at 595 nm and percent inhibition by superoxide dismutase mimetic or test compound was calculated."}, "[3]": {"target": "xanthine-xanthine oxidase (superoxide generator)", "test": "Superoxide dismutase (SOD) mimetic activity, inhibition of nitroblue tetrazolium reduction", "type": "biochemical", "settings": "0.12 mM xanthine, 6 mU xanthine oxidase, 27 μM NBT, pH 10.5, 25° C., 20 minutes", "method": "as §1, §2"}, "[4]": {"target": "T1, Steroid 5-α-reductase isolated from liver of Wistar rat (Rattus norvegicus, UniProt P24008)", "T1 construct": "isolated from liver of Wistar rat by conventional centrifugation; from tissue; host or cells: liver of Wistar rat", "T1 sequence (P24008 1-259)": "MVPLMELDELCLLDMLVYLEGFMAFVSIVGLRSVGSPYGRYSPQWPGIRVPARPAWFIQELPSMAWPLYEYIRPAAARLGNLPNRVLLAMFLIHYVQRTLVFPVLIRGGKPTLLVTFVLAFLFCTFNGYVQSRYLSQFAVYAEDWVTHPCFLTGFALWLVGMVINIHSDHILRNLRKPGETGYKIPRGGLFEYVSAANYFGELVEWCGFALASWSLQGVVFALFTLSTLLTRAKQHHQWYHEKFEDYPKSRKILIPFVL", "test": "Steroid 5-α-reductase inhibition (testosterone EIA)", "type": "biochemical", "settings": "rat liver enzyme, 1 μM testosterone, 30 minutes", "source_text": "Steroid 5-α-reductase isolated from liver of Wistar rat by conventional centrifugation was used (Liang T, et. al., Endocrinology. 1985;117(2): 571-9).\nThe reaction was terminated by addition of 1 N HCl and neutrilized by 1 N NaOH. Testosterone was quantitated by using a Testosterone EIA Kit."}, "[5]": {"target": "T2, Human recombinant Cyclooxygenase-2 expressed in Sf21 cells (Homo sapiens, UniProt P35354)", "T2 construct": "purchased Sigma C-0858; host or cells: Sf21 cells", "T2 sequence (P35354 18-604)": "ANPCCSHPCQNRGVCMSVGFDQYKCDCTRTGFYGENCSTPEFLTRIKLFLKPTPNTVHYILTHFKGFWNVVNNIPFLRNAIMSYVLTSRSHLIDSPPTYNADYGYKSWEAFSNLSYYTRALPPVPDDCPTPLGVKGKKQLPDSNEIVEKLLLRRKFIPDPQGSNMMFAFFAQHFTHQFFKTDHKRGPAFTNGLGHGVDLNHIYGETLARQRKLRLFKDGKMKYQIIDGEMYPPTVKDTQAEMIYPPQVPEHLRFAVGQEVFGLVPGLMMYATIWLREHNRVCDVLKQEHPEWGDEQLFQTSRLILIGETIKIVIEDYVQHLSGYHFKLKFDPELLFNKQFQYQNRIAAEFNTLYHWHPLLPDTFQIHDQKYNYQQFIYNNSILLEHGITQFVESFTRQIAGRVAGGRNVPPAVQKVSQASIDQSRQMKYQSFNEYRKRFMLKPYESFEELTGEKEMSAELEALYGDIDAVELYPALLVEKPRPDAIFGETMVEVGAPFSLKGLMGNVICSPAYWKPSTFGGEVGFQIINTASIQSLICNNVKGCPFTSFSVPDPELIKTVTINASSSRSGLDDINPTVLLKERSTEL", "test": "COX II inhibition (PGE2 EIA)", "type": "biochemical", "settings": "human recombinant enzyme, 0.3 μM arachidonic acid", "method": "The reaction was initiated by addition of 0.3 μM arachidonic acid for 5 minutes and terminated by further addition of 1 N HCl. Following centrifugation, substrate conversion to PGE2 was measured by an Amersham EIA kit."}, "[6]": {"settings": "Cutibacterium acnes, ATCC6919, broth dilution, 37° C., 48 hours, anaerobic, read-out: MIC"}}, "note": "Where two headings read alike, the source gives them in different places.", "data": [{"compound": "CC1(C)S[C@@H]2[C@H](NC(=O)[C@H](N)c3ccccc3)C(=O)N2[C@H]1C(=O)O", "note": "[Ampicillin]", "values": [{"measurement": "MIC", "setting": "[1]; [6]", "value": 0.1, "unit": "µg/mL"}]}, {"compound": "Gentamicin", "values": [{"measurement": "MIC", "setting": "[1]; broth dilution, 37° C., 48 hours, anaerobic", "value": 30, "unit": "µg/mL"}]}, {"compound": "CC1COc2c(N3CCN(C)CC3)c(F)cc3c(=O)c(C(=O)O)cn1c23", "note": "(centres unmarked) [Ofloxacin]", "values": [{"measurement": "MIC", "setting": "[1]; [6]", "value": 1, "unit": "µg/mL"}]}, {"compound": "O=C(O[C@@H]1Cc2c(O)cc(O)cc2O[C@@H]1c1ccc(O)c(O)c1)c1cc(O)c(O)c(O)c1", "note": "[(−)-Epicatechin gallate]", "values": [{"measurement": "IC50, SOD mimetic activity", "setting": "[2]", "value": 2.698, "unit": "µg/mL"}, {"measurement": "IC50", "setting": "[3]", "value": 2.698, "unit": "µg/mL"}]}, {"compound": "CN(C)[C@@H]1C(O)=C(C(N)=O)C(=O)[C@@]2(O)C(O)=C3C(=O)c4c(O)cccc4[C@@](C)(O)[C@H]3C[C@@H]12", "note": "[Tetracycline]", "values": [{"measurement": "MIC", "setting": "[1]; [6]", "value": 1, "unit": "µg/mL"}]}, {"compound": "CCCCC/C=C\\C/C=C\\C/C=C\\CCCCC(=O)O", "note": "[γ-Linolenic Acid]", "values": [{"measurement": "IC50", "setting": "[4]", "value": 14, "unit": "µM"}]}, {"compound": "Superoxide dismutase (SOD): standard reference agent used, Human SOD MW = 2 × 28.3 KDa", "values": [{"measurement": "IC50, SOD mimetic activity", "setting": "[2]", "value": 0.475, "unit": "µg/mL"}]}, {"compound": "CC(C)(C)NC(=O)[C@H]1CC[C@H]2[C@@H]3CC[C@H]4NC(=O)C=C[C@]4(C)[C@H]3CC[C@]12C", "note": "[Finasteride]", "values": [{"measurement": "IC50", "setting": "[4]", "value": 0.025, "unit": "µM"}]}, {"compound": "CN[C@H](CC(C)C)C(=O)N[C@H]1C(=O)N[C@@H](CC(N)=O)C(=O)N[C@H]2C(=O)N[C@H]3C(=O)N[C@H](C(=O)N[C@H](C(=O)O)c4cc(O)cc(O)c4-c4cc3ccc4O)[C@H](O)c3ccc(c(Cl)c3)Oc3cc2cc(c3O[C@@H]2O[C@H](CO)[C@@H](O)[C@H](O)[C@H]2O[C@H]2C[C@](C)(N)[C@H](O)[C@H](C)O2)Oc2ccc(cc2Cl)[C@H]1O", "note": "[Vancomycin]", "values": [{"measurement": "MIC", "setting": "[1]; Cutibacterium acnes, ATCC6919, 48 h", "value": 1, "unit": "µg/mL"}]}, {"compound": "O=C(O)c1cccnc1Nc1cccc(C(F)(F)F)c1", "note": "[Niflumic acid]", "values": [{"measurement": "IC50", "setting": "[5]", "value": 691, "unit": "nM"}]}]}
